Tests used:
[1] = target: T1, Amine oxidase [flavin-containing] B (Rattus norvegicus, UniProt P19643); experiment: (§1) Ex vivo inhibitory activity against rat brain monoamine oxidase (MAO) type B at a dose of 5 mg/kg administered orally at 1 hr; format: functional, organism-based; set-up: dose 5 mg/kg, route oral; settings: po
T1 sequence (P19643 whole entry): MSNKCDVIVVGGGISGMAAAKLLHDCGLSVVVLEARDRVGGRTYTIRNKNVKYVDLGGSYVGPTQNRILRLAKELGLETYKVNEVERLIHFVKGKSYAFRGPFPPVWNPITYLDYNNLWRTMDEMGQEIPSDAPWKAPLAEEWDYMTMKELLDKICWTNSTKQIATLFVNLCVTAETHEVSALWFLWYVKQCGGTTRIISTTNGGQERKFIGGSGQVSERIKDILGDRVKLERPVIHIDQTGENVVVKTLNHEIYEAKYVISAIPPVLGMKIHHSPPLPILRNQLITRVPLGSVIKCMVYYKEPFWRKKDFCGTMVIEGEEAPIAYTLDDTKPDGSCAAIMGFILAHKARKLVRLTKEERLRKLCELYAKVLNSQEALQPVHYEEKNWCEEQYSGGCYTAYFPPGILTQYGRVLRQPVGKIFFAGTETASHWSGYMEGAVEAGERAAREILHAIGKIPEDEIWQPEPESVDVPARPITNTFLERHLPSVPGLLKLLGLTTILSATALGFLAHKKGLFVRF

[2] = target: T1, Amine oxidase [flavin-containing] B; experiment: (§2) Compound was evaluated for inhibitory activity against monoamine oxidase (MAO) type B by reversibility test after dialysis at a concentration of 0.1 uM; format: functional; settings: read-out: Control
[3] = target: T1, Amine oxidase [flavin-containing] B; experiment: In vitro inhibitory activity against rat brain Monoamine oxidase B
[4] = Selectivity for the B form was estimated by the IC50(MAO A)/IC50(MAO B) ratio.
[5] = target: T2, Amine oxidase [flavin-containing] A (Rattus norvegicus, UniProt P21396); experiment: Ex vivo inhibitory activity against rat brain monoamine oxidase (MAO) type A at a dose of 5 mg/kg administered orally at 0.5 hr; format: functional, organism-based; set-up: dose 5 mg/kg, route oral; settings: po
T2 sequence (P21396 whole entry): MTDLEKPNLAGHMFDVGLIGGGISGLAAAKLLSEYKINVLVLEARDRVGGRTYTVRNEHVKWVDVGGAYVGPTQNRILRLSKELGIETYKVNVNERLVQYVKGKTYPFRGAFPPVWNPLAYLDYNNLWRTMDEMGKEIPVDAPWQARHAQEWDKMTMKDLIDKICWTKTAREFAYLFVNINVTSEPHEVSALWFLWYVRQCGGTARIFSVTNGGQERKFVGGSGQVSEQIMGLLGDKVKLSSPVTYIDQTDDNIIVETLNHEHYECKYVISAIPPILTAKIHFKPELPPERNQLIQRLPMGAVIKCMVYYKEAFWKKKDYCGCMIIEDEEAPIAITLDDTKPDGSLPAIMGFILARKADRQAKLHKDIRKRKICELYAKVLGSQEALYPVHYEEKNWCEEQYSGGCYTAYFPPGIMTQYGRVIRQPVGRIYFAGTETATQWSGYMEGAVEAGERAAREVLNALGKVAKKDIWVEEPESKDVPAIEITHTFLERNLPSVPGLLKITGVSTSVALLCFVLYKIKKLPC

[6] = target: T1, Amine oxidase [flavin-containing] B; experiment: (§3) Compound was evaluated for inhibitory activity against monoamine oxidase (MAO) type B by reversibility test before dialysis at a concentration of 0.1 uM; format: functional; settings: read-out: Control
[7] = target: T2, Amine oxidase [flavin-containing] A; experiment: (§4) Ex vivo inhibitory activity against rat brain monoamine oxidase (MAO) type A at a dose of 5 mg/kg administered orally at 1 hr; format: functional, organism-based; set-up: dose 5 mg/kg, route oral; settings: po
[8] = target: T1, Amine oxidase [flavin-containing] B; experiment: Ex vivo inhibitory activity against rat brain monoamine oxidase (MAO) type B at a dose of 5 mg/kg administered orally at 4 hr; format: functional, organism-based; set-up: dose 5 mg/kg, route oral; settings: po
[9] = target: T1, Amine oxidase [flavin-containing] B; experiment: Ex vivo inhibitory activity against rat brain monoamine oxidase (MAO) type B at a dose of 5 mg/kg administered orally at 0.5 hr; format: functional, organism-based; set-up: dose 5 mg/kg, route oral; settings: po
[10] = target: T2, Amine oxidase [flavin-containing] A; experiment: Ex vivo inhibitory activity against rat brain monoamine oxidase (MAO) type A at a dose of 5 mg/kg administered orally at 4 hr; format: functional, organism-based; set-up: dose 5 mg/kg, route oral; settings: po
[11] = target: T2, Amine oxidase [flavin-containing] A; experiment: In vitro inhibitory activity against rat brain Monoamine oxidase A
[12] = target: T1, Amine oxidase [flavin-containing] B; experiment: Compound was evaluated for inhibitory activity against monoamine oxidase (MAO) type B by reversibility test before dialysis at a concentration of 0.001 uM; format: functional; settings: read-out: Control
[13] = target: T1, Amine oxidase [flavin-containing] B; experiment: Compound was evaluated for inhibitory activity against monoamine oxidase (MAO) type B by reversibility test after dialysis at a concentration of 0.001 uM; settings: read-out: Control
[14] = target: T1, Amine oxidase [flavin-containing] B; experiment: as §3; settings: read-out: Control
[15] = target: T1, Amine oxidase [flavin-containing] B; experiment: as §2; settings: read-out: Control
[16] = target: T1, Amine oxidase [flavin-containing] B; experiment: Ex vivo inhibitory activity against rat brain monoamine oxidase (MAO) type B at a dose of 5 mg/kg administered orally at 24 hr; format: functional, organism-based; set-up: dose 5 mg/kg, route oral; settings: po
[17] = target: T2, Amine oxidase [flavin-containing] A; experiment: Ex vivo inhibitory activity against rat brain monoamine oxidase (MAO) type A at a dose of 5 mg/kg administered orally at 24 hr; format: functional, organism-based; set-up: dose 5 mg/kg, route oral; settings: po
[18] = target: T1, Amine oxidase [flavin-containing] B; experiment: Inhibitory activity against monoamine oxidase (MAO) type B by reversibility test before dialysis at a concentration of 0.001 uM; settings: read-out: Control
[19] = target: T1, Amine oxidase [flavin-containing] B; experiment: Inhibitory activity against monoamine oxidase (MAO) type B by reversibility test after dialysis at a concentration of 0.001 uM; settings: read-out: Control
[20] = target: T1, Amine oxidase [flavin-containing] B; experiment: Inhibitory activity against monoamine oxidase (MAO) type B by reversibility test before dialysis at a concentration of 0.1 uM; settings: read-out: Control
[21] = target: T1, Amine oxidase [flavin-containing] B; experiment: Inhibitory activity against monoamine oxidase (MAO) type B by reversibility test after dialysis at a concentration of 0.1 uM; settings: read-out: Control
[22] = target: T1, Amine oxidase [flavin-containing] B; experiment: Compound was evaluated for the Inhibition of Monoamine oxidase B
[23] = target: T2, Amine oxidase [flavin-containing] A; experiment: Ex vivo inhibitory activity against rat brain monoamine oxidase (MAO) type A at a dose of 5 mg/kg administered orally at 8 hr; format: functional, organism-based; set-up: dose 5 mg/kg, route oral; settings: po
[24] = target: T2, Amine oxidase [flavin-containing] A; experiment: as §4; format: organism-based; set-up: dose 5 mg/kg, route oral; settings: po
[25] = target: T1, Amine oxidase [flavin-containing] B; experiment: as §1; settings: po

| SMILES | IC50 [3] [µM] | IC50 [11] [µM] | further results |
| --- | --- | --- | --- |
| OCCn1nnc(-c2ccc(OCc3cccc(Cl)c3)cc2)n1 | 0.2 | 58 | inhibition at 5 mg/kg [1]: 71%; remaining activity at 0.1 µM [2]: 109%; Selectivity [4]: 290; inhibition at 5 mg/kg [5]: 15%; remaining activity at 0.1 µM [6]: 25%; inhibition at 5 mg/kg [7]: 15%; inhibition at 5 mg/kg [8]: 55%; inhibition at 5 mg/kg [9]: 69%; inhibition at 5 mg/kg [10]: 14% |
| OCCn1nnc(-c2ccc(OCc3ccccc3I)cc2)n1 | 0.35 | > 100 | – |
| N#CCCn1nnc(-c2ccc(OCc3cccc(Cl)c3)cc2)n1 | 0.1 | > 100 | inhibition at 5 mg/kg [1]: 81%; remaining activity at 0.001 µM [12]: 69%; remaining activity at 0.001 µM [13]: 95%; Selectivity [4]: > 1000; remaining activity at 0.1 µM [14]: 15%; inhibition at 5 mg/kg [5]: 13%; remaining activity at 0.1 µM [15]: 87%; inhibition at 5 mg/kg [16]: 9%; inhibition at 5 mg/kg [7]: 18%; inhibition at 5 mg/kg [8]: 63%; inhibition at 5 mg/kg [17]: 1%; inhibition at 5 mg/kg [9]: 72%; inhibition at 5 mg/kg [10]: 8% |
| OCCn1nnc(-c2ccc(Cl)cc2)n1 | 38 | 66 | – |
| COc1ccc(COc2ccc(-c3nnn(CCC#N)n3)cc2)cc1 | – | > 100 | – |
| N#CCCn1nnc(-c2ccc(OCc3ccccc3I)cc2)n1 | > 270 | > 100 | – |
| COc1ccc(-c2nnn(CCC#N)n2)cc1 | 37 | 16.6 | – |
| OCCn1nnc(-c2ccc(OCc3ccccc3Cl)cc2)n1 | 9 | – | – |
| N#CCCn1nnc(-c2ccc(-c3ccccc3)cc2)n1 | 0.84 | – | – |
| COc1ccc2c3c([nH]c2c1)C(C)=NCC3 [HARMALINE] | 150 | 0.012 | Selectivity [4]: 5 |
| N#CCCn1nnc(-c2ccc(OCc3ccccc3Cl)cc2)n1 | 0.03 | > 100 | – |
| Cc1ccc(COc2ccc(-c3nnn(CCO)n3)cc2)cc1 | – | > 100 | – |
| OCCCn1nnc(-c2ccc(-c3ccccc3)cc2)n1 | 1.36 | 4.6 | – |
| Cc1ccccc1COc1ccc(-c2nnn(CCO)n2)cc1 | – | > 100 | Selectivity [4]: > 350 |
| N#CCCn1nnc(-c2ccc([N+](=O)[O-])cc2)n1 | 13.4 | 18 | – |
| N#CCCn1nnc(-c2ccc(Cl)cc2)n1 | 3.6 | 6.5 | – |
| Cc1cccc(COc2ccc(-c3nnn(CCC#N)n3)cc2)c1 | – | > 100 | – |
| COc1cccc(COc2ccc(-c3nnn(CCC#N)n3)cc2)c1 | – | > 100 | – |
| Cc1cccc(COc2ccc(-c3nnn(CCO)n3)cc2)c1 | – | > 100 | – |
| N#CCCCCn1nnc(-c2ccc(-c3ccccc3)cc2)n1 | 6 | 26 | – |
| COc1cccc(COc2ccc(-c3nnn(CCO)n3)cc2)c1 | – | 80 | – |

| SMILES | IC50 [3] [µM] | IC50 [11] [µM] | further results |
| --- | --- | --- | --- |
| N#CCCn1nnc(-c2ccccc2)n1 | > 100 | 54 | – |
| N#CCCn1nnc(-c2ccc(OCc3ccccc3)cc2)n1 | 0.002 | – | inhibition at 5 mg/kg [1]: 74%; remaining activity at 0.001 µM [18]: 65%; remaining activity at 0.001 µM [19]: 85%; remaining activity at 0.1 µM [20]: 12%; Selectivity [4]: 37000; inhibition at 5 mg/kg [5]: 6%; remaining activity at 0.1 µM [21]: 54%; inhibition at 5 mg/kg [16]: 24%; inhibition at 5 mg/kg [7]: 12%; inhibition at 5 mg/kg [8]: 69%; inhibition at 5 mg/kg [17]: 2%; inhibition at 5 mg/kg [9]: 76%; inhibition at 5 mg/kg [10]: 0% |
| COc1ccc(COc2ccc(-c3nnn(CCO)n3)cc2)cc1 | – | > 100 | – |
| COc1ccc(-c2nnn(CCO)n2)cc1 | > 100 | 46 | – |
| N#CCCCCCCn1nnc(-c2ccc(-c3ccccc3)cc2)n1 | – | – | Selectivity [4]: 8.5 |
| O=[N+]([O-])c1ccc(-c2nnn(CCO)n2)cc1 | > 100 | > 100 | – |
| OCCCCn1nnc(-c2ccc(-c3ccccc3)cc2)n1 | 9.4 | 13 | – |
| OCCn1nnc(-c2ccc(OCc3ccc(Cl)cc3)cc2)n1 | 0.32 | – | – |
| OCCn1nnc(-c2ccccc2)n1 | 89 | > 100 | – |
| Cc1ccc(COc2ccc(-c3nnn(CCC#N)n3)cc2)cc1 | – | > 100 | – |
| N#CCCn1nnc(-c2ccncc2)n1 | 30 | > 100 | – |
| OCCn1nnc(-c2ccc(-c3ccccc3)cc2)n1 | 0.96 | 11 | – |
| N#CCCn1nc(-c2ccc(OCc3ccccc3)cc2)oc1=S | – | – | IC50 [22]: 0.0046 µM |
| OCCn1nnc(-c2ccc(OCc3ccccc3)cc2)n1 | 0.03 | 64 | inhibition at 5 mg/kg [1]: 84%; remaining activity at 0.1 µM [2]: 107%; Selectivity [4]: 2100; inhibition at 5 mg/kg [5]: 5%; remaining activity at 0.1 µM [6]: 19%; inhibition at 5 mg/kg [7]: 4%; inhibition at 5 mg/kg [8]: 63%; inhibition at 5 mg/kg [9]: 84%; inhibition at 5 mg/kg [10]: 4% |
| C#CCN(C)[C@H](C)Cc1ccccc1 [SELEGILINE] | – | – | inhibition at 5 mg/kg [23]: 5%; inhibition at 5 mg/kg [16]: 81%; inhibition at 5 mg/kg [24]: 3%; inhibition at 5 mg/kg [25]: 83%; inhibition at 5 mg/kg [17]: 2% |
| N#CCCn1nc(-c2ccc(OCc3ccccc3)cc2)oc1=O | – | – | IC50 [22]: 0.0046 µM |
| Cc1ccccc1COc1ccc(-c2nnn(CCC#N)n2)cc1 | – | > 100 | – |
| OCCn1nnc(-c2ccc(OCc3ccc(F)cc3)cc2)n1 | – | > 100 | – |
| OCCn1nnc(-c2ccncc2)n1 | > 100 | > 100 | – |
| N#CCCn1nnc(-c2ccc(OCc3ccc(F)cc3)cc2)n1 | – | > 100 | – |
| N#CCCn1nnc(-c2ccc(OCc3ccc(Cl)cc3)cc2)n1 | 0.08 | > 100 | – |

Source: ChEMBL document CHEMBL1128201, “Selective and potent monoamine oxidase type B inhibitors: 2-substituted 5-aryltetrazole derivatives” (J Med Chem, 1995)
